Legend:
[1] = molecular target: T1, Histamine H3 receptor (Homo sapiens, UniProt Q9Y5N1); test: Displacement of [3H]N-R-methylhistamine binding to SK-N-MC cell membranes expressing human H3 receptor
[2] = molecular target: T1, Histamine H3 receptor; test: Inhibition of cAMP-stimulated beta-galactosidase transcription in SK-N-MC cells expressing human H3 receptor; type: functional, cell-based
[3] = test system: Histamine H3 receptor (Cavia porcellus); test: Effect on guinea pig ileal muscle contraction evoked by electrical field stimulation (EFS)
[4] = molecular target: Histamine H2 receptor (Homo sapiens, UniProt P25021); test: Displacement of [125I]aminopotentidine binding to CHO cell membranes expressing human histamine H2 receptor
Sequence of Histamine H2 receptor (P25021 whole entry): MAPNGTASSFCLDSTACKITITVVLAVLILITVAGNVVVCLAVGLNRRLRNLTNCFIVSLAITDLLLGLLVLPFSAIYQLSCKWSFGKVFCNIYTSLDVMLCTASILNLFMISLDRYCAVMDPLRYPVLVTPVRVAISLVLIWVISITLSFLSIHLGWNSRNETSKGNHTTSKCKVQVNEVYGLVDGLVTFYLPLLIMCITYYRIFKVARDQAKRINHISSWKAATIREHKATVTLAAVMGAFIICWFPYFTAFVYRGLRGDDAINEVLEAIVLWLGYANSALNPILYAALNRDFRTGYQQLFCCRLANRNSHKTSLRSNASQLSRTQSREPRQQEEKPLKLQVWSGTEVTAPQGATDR

[5] = molecular target: Histamine H4 receptor (Homo sapiens, UniProt Q9H3N8); test: Displacement of [3H]histamine binding to SK-N-MC cell membranes expressing human histamine H4 receptor
Sequence of Histamine H4 receptor (Q9H3N8 whole entry): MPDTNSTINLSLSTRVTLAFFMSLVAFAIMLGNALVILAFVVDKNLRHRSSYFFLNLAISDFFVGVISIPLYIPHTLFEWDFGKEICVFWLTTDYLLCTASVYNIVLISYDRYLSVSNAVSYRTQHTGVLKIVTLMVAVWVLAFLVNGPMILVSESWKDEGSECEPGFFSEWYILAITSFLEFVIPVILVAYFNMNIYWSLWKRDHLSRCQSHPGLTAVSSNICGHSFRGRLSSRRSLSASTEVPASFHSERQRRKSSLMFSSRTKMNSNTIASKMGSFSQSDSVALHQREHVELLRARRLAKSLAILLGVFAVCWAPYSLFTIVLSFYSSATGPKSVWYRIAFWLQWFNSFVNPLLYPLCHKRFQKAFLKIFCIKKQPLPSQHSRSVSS

[6] = molecular target: Histamine H1 receptor (Homo sapiens, UniProt P35367); test: Displacement of [3H]mepyramine binding to COS-7 cell membranes expressing human histamine H1 receptor
Sequence of Histamine H1 receptor (P35367 whole entry): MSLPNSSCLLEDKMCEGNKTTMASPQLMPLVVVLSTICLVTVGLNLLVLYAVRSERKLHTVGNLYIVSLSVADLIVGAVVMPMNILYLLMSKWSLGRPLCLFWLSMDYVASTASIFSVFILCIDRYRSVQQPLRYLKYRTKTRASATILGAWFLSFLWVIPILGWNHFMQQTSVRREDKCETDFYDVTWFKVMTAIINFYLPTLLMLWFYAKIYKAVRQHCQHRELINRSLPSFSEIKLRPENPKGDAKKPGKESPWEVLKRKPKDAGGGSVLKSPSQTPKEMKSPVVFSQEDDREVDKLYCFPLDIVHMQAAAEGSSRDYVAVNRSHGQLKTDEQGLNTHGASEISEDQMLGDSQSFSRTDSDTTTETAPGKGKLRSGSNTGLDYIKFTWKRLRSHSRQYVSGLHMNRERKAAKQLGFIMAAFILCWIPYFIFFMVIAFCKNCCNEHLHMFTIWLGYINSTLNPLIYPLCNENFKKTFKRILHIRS

T1 sequence (Q9Y5N1 whole entry): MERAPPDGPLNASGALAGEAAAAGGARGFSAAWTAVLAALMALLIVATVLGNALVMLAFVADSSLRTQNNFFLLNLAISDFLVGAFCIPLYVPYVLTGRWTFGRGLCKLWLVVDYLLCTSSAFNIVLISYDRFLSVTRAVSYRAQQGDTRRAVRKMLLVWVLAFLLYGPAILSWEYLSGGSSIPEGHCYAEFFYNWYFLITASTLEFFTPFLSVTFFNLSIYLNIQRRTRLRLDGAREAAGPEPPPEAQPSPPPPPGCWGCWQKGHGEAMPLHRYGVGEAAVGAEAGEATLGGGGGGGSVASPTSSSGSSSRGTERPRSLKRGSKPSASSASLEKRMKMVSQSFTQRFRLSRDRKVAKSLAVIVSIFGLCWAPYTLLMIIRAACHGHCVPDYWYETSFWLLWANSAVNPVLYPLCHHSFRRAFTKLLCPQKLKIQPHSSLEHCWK

Row | SMILES | Ki [1] | EC50 [2] | pD2 [3] | Ki [4] | Ki [5] | Ki [6]
1 | C(=C1CCN(Cc2ccccc2)CC1)c1c[nH]cn1 | 398 nM | 79.4 nM |  |  |  | 
2 | CC(C)N1CCC(=Cc2c[nH]cn2)CC1 | 63.1 nM | 63.1 nM |  |  |  | 
3 | c1ccc(CN2CCC(Cc3c[nH]cn3)CC2)cc1 | 50.1 nM | 15.8 nM |  |  |  | 
4 | CC(C)N1CCC(CCc2c[nH]cn2)CC1 | 100 nM | 200 nM |  |  |  | 
5 | c1nc(CCC2CCNCC2)c[nH]1 |  | 12.6 nM |  |  |  | 
6 | CN1CCC(Cc2c[nH]cn2)CC1 [METHIMEPIP] | 1 nM | 0.316 nM | 8.26 | > 10000 nM | 2000 nM | > 10000 nM
7 | CN1CCC(CCc2c[nH]cn2)CC1 | 50.1 nM | 50.1 nM |  |  |  | 
8 | C(=C1CCNCC1)c1c[nH]cn1 | 6.31 nM |  |  |  |  | 
9 | c1ccc(CCN2CCC(CCc3c[nH]cn3)CC2)cc1 | 39.8 nM | > 10000 nM |  |  |  | 
10 | CCN1CCC(=Cc2c[nH]cn2)CC1 | 50.1 nM | 25.1 nM |  |  |  | 
11 | c1ccc(CCN2CCC(Cc3c[nH]cn3)CC2)cc1 | 10 nM | 7.94 nM |  |  |  | 
12 | C(=C1CCN(CCc2ccccc2)CC1)c1c[nH]cn1 | 63.1 nM | 15.8 nM |  |  |  | 
13 | CCN1CCC(Cc2c[nH]cn2)CC1 | 15.8 nM | 3.98 nM |  |  |  | 
14 | c1nc(CC2CCN(C3CCCCC3)CC2)c[nH]1 | 15.8 nM | 3.98 nM |  |  |  | 
15 | c1nc(CC2CCNCC2)c[nH]1 [IMMEPIP] | 0.501 nM |  | 8.4 | > 10000 nM | 20 nM | 
16 | CN1CCC(=Cc2c[nH]cn2)CC1 | 5.01 nM | 2.51 nM |  |  |  | 
17 | c1ccc(CCCN2CCC(Cc3c[nH]cn3)CC2)cc1 | 39.8 nM | 31.6 nM |  |  |  | 
18 | CCN1CCC(CCc2c[nH]cn2)CC1 | 63.1 nM | > 10000 nM |  |  |  | 
19 | C(=C1CCN(C2CCCCC2)CC1)c1c[nH]cn1 | 31.6 nM | 50.1 nM |  |  |  | 
20 | CC(C)N1CCC(Cc2c[nH]cn2)CC1 | 63.1 nM | 7.94 nM |  |  |  | 
21 | c1ccc(CN2CCC(CCc3c[nH]cn3)CC2)cc1 | 79.4 nM | > 10000 nM |  |  |  | 
22 | c1nc(CCC2CCN(C3CCCCC3)CC2)c[nH]1 | 158 nM | 316 nM |  |  |  | 
